Data: patent US9080197B2, “Equol level regulator” (priority 2005, dated 2015)
Read-outs that look alike come from different tables or passages of the source.

What was measured:
[1] = tested on: feces of an equol producer (microorganisms having conversion ability to equol); experiment: Effect of carbohydrates upon equol production in anaerobic culture of feces of an equol producer with daidzein; assay type: cell-based; settings: for activity at 1 %: Homo sapiens; for Equol concentration in medium: anaerobic, 37° C., no carbohydrate 18.1 μM; for daidzein added to the medium remaining: 100 μM of daidzein added
Description: The equol concentration regulating activity of a carbohydrate can be checked by taking feces from a human having ability to produce equol (equol producer), adding daidzein serving as a substrate for equol and a target carbohydrate to the feces thus taken, culturing the feces, determining the concentration of equol in the culture medium and fitting the determined equol concentration to the following equation in comparison with the concentration of equol in a culture medium containing no carbohydrate. Equal concentration regulating activity (%)=(equol concentration of a culture medium containing a target carbohydrate)/(equol concentration of a culture medium containing no carbohydrate)×100
Fresh feces of an equol producer were suspended in a dilute solution (10-fold by volume) containing 0.00255% of KH2PO4, 0.00255% of K2HPO4, 0.006% of NaCl, […] of (NH4)2SO4, 0.000255% of CaCl2, 0.000255% of MgSO4, 0.1% of a 0.1% resazurin solution, 2.2% of an 8% Na2CO3 solution and 0.05% of L-cysteine hydrochloride by use of glass beads (φ 3 mm) in anaerobic conditions and solid matter was removed by use of sterilized gauze. The solution was centrifuged at 8,000 rpm for 10 minutes. Precipitation was suspended in a dilute solution in the same amount thereof. The solution was stored in a freezer at −30° C. as it was.
The feces dilution solution was thawed and centrifuged again. Precipitation was resuspended in PY medium (100-fold by volume) containing 0.5% of peptone, 0.5% of trypticase peptone, 1% of yeast extract, 0.00005% of hemin, 0.0001% of vitamin K1, 0.05% of L-cysteine hydrochloride, 0.0006% of KH2PO4, 0.0006% of K2HPO4, 0.0012% of NaCl, 0.0006% of (NH4)2SO4, 0.00006% of CaCl2 and 0.00006% of MgSO4. At this time, adonitol, arabinose, cellobiose, erythritol, fructo-oligosaccharide, fructose, galactose, glucose, glycogen, inositol, […], lactitol, lactose, lactulose, maltose, mannitol, mannose, melezitose, melibiose, raffinose, rhamnose, ribose, sorbitol, sorbose, sucrose, trehalose, xylose, or galacto-oligosaccharide was added so as to obtain a final concentration of 1%. Simultaneously, a series of sample containing no carbohydrate was prepared. To the series of samples, daidzein was added so as to obtain a final concentration of 100 μM. Culture was performed in completely anaerobic conditions at 37° C. for 16 hours. Note that culture was performed independently in four series. From the culture solution obtained, daidzein and equol were extracted and subjected to HPLC analysis. Note that inositol used herein is myo-inositol manufactured by SIGMA and glycogen was one derived from oyster and manufactured by SIGMA. Trehalose is D(+) trehalose (α,α form) manufactured by SIGMA and galacto-oligosaccharide is TOS-S, which is a mixture of 4′galactosyl-lactose and 6′galactosyl-lactose, and manufactured by Yakult Pharmaceutical Industry Co., Ltd. Fructo-oligosaccharide is a mixture of 1-kestose, nystose and 1-fructosyl-D-nystose manufactured by Wako Pure Chemical Industries, Ltd.
Daidzein and equol were extracted by the following manner. To 500 μL of a culture solution, 250 μL of diethyl ether was added and sufficiently stirred. The solution mixture was centrifuged at 2,000 rpm for 10 minutes to obtain a diethyl ether layer. The remaining aqueous layer was subjected to diethyl ether extraction performed in the same manner. The ether layers obtained in the two extraction operations were combined, concentrated and dried under spray of nitrogen gas flow at 40° C. The dried product was dissolved in 250 μL of 80% methanol and filtrated through a filter to obtain a sample to be subjected to measurement.
Furthermore, HPLC was performed in the following conditions:
Daidzein and equol standard products were poured in the aforementioned conditions to form calibration curves, respectively. In this manner, daidzein and equol concentrations of the samples were determined. […]

[2] = tested on: microorganism having conversion ability to equol; experiment: Sub-culture of feces of an equol producer in PY medium containing a carbohydrate (selective medium), daidzein-to-equol conversion; assay type: cell-based; settings: PY medium with 1% carbohydrate, daidzein 100 μM, 37° C., 16 hours per passage
Experimental: A feces suspension solution stored in the process according to Experimental Example 1 was added to 500 μL of PY mediums (to which adonitol or sorbose was previously added so as to obtain a final concentration of 1%; and distilled water was added in place of adonitol or sorbose for preparing a control sample) so as to obtain a content of 1/10 and daidzein was added so as to obtain a final concentration of 100 μM. Each medium was cultured at 37° C. for 16 hours in completely anaerobic conditions. After the culturing, an aliquot of 50 μL was taken from the culture solution and transferred to a fresh PY medium (500 μL). The remaining culture solution was subjected to daidzein and equol extraction. Thereafter, the same operation was repeatedly performed. In this manner, sub-culture was performed. At this time, a bacterial solution was appropriately subjected to gram staining and microscopically observed. The extraction of daidzein and equol, and quantification by HPLC were performed in accordance with the method described in Experimental Example 1. Each obtained daidzein and equol concentration was fitted into the following formula to obtain a daidzein-to-equol conversion rate. Note that culture was performed independently in three series to obtain an average conversion rate and standard deviation thereof. […]

[3] = rat, Non-Patent Document 5; cited from earlier work
[4] = relative to medium containing no carbohydrate (=100%), carbohydrate 1%, daidzein 100 μM, 16 hours, read-out: Equol concentration regulating activity
[5] = sample containing no carbohydrate taken as 100%, carbohydrate 1%, read-out: daidzein-to-equol conversion rate
[6] = carbohydrate 1%, daidzein 100 μM, 16 hours
[7] = read-out: daidzein-to-equol conversion rate
[8] = relative to medium containing no carbohydrate (=100%), carbohydrate 1%, daidzein 100 μM, 16 hours

Compound	activity at 1 % [1, 4]	activity at 1 % [1, 5]	Equol concentration in medium [1, 6]	further results
OC[C@H]1O[C@@H](O[C@@H]2[C@@H](CO)OC(O)(CO)[C@H]2O)[C@H](O)[C@@H](O)[C@H]1O (mixture of isomers) [Lactulose, lactulose]	8.1%	≤ 50%	1.5 µM	
OC[C@@H](O)[C@@H](O)[C@@H](O)CO [Adonitol, adonitol]	260%	≥ 200%	47.0 µM	generation to which conversion ability to equol can be maintained in sub-culture [2]: 8th
O=C[C@@H](O)[C@H](O)[C@H](O)CO [Arabinose, arabinose]	391%	≥ 200%	70.6 µM	
O=C[C@H](O)[C@@H](O)[C@H](O[C@@H]1O[C@H](CO)[C@@H](O)[C@H](O)[C@H]1O)[C@H](O)CO [Cellobiose, cellobiose]	161%		29.0 µM	
OC[C@@H](O)[C@@H](O)CO [Erythritol, erythritol]	214%	≥ 200%	38.7 µM	
O=C(CO)[C@@H](O)[C@H](O)[C@H](O)CO [Fructose, fructose]	51.5%		9.3 µM	
O=C[C@H](O)[C@@H](O)[C@@H](O)[C@H](O)CO [Galactose, galactose]	240%		65.0 µM	activity at 1 % [1, 7]: ≥ 200%
O[C@H]1[C@H](O)[C@@H](O)[C@H](O)[C@@H](O)[C@H]1O [Inositol, myo-inositol]	416%	≥ 200%	75.2 µM	
OC[C@@H](O)[C@@H](O[C@@H]1O[C@H](CO)[C@H](O)[C@H](O)[C@H]1O)[C@H](O)[C@@H](O)CO [Lactitol, lactitol]	459%	≥ 200%	82.9 µM	
OC[C@H]1O[C@@H](O[C@H]2[C@H](O)[C@@H](O)C(O)O[C@@H]2CO)[C@H](O)[C@@H](O)[C@H]1O (stereo partly shown) [Lactose, lactose]	0%	≤ 50%	0.0 µM	daidzein added to the medium remaining ([1]; carbohydrate 1%): mostly remained; equol production [1, 6]: not observed
OC[C@H]1O[C@H](O[C@H]2[C@H](O)[C@@H](O)[C@H](O)O[C@@H]2CO)[C@H](O)[C@@H](O)[C@@H]1O [Maltose, maltose]	58.5%		10.6 µM	
OC[C@@H](O)[C@@H](O)[C@H](O)[C@H](O)CO [Mannitol, mannitol]	182%		32.9 µM	
OC[C@H]1O[C@@](CO)(O[C@H]2O[C@H](CO)[C@@H](O)[C@H](O)[C@H]2O)[C@@H](O[C@H]2O[C@H](CO)[C@@H](O)[C@H](O)[C@H]2O)[C@@H]1O [Melezitose, melezitose]	412%	≥ 200%	74.3 µM	
OC[C@H]1O[C@H](OCC2O[C@@H](O)[C@H](O)[C@@H](O)[C@@H]2O)[C@H](O)[C@@H](O)[C@H]1O (stereo partly shown) [Melibiose, melibiose]			4.5 µM	Equol concentration regulating activity [1, 8]: 24.8%
OC[C@H]1O[C@H](OC[C@H]2O[C@H](O[C@]3(CO)O[C@H](CO)[C@@H](O)[C@@H]3O)[C@H](O)[C@@H](O)[C@@H]2O)[C@H](O)[C@@H](O)[C@H]1O [Raffinose, raffinose]	0%	≤ 50%	0.0 µM	daidzein added to the medium remaining ([1]; carbohydrate 1%): mostly remained; equol production [1, 6]: not observed
C[C@H](O)[C@H](O)[C@@H](O)[C@@H](O)C=O [Rhamnose, rhamnose]	116%		21.0 µM	
O=C[C@H](O)[C@H](O)[C@H](O)CO [Ribose, ribose]	330%	≥ 200%	59.5 µM	
OC[C@@H](O)[C@@H](O)[C@H](O)[C@@H](O)CO [Sorbitol, sorbitol]	372%	≥ 200%	67.3 µM	
O=C(CO)[C@H](O)[C@@H](O)[C@H](O)CO [Sorbose, sorbose]	468%		84.5 µM	activity at 1 % [1, 7]: ≥ 200%; generation to which conversion ability to equol can be maintained in sub-culture [2]: 11th
OC[C@H]1O[C@@](CO)(O[C@H]2O[C@H](CO)[C@@H](O)[C@H](O)[C@H]2O)[C@@H](O)[C@@H]1O [Sucrose, sucrose]	0%	≤ 50%	0.0 µM	daidzein added to the medium remaining ([1]; carbohydrate 1%): mostly remained; equol production [1, 6]: not observed
OC[C@H]1O[C@H](O[C@H]2O[C@H](CO)[C@@H](O)[C@H](O)[C@H]2O)[C@H](O)[C@@H](O)[C@@H]1O [Trehalose, D(+) trehalose]	404%	≥ 200%	72.9 µM	
O=C[C@H](O)[C@@H](O)[C@H](O)CO [Xylose, xylose]	443%	≥ 200%	79.9 µM	
Inulin [reference compound]			0.0 µM	daidzein added to the medium remaining ([1]; carbohydrate 1%): mostly remained; effect on daidzein-to-equol conversion rate in this test system ([1]; carbohydrate 1%): significantly decreases; equol production [1, 6]: not observed; Equol concentration regulating activity [1, 8]: 0.0%; equol concentration in the serum [3]: reduces
glycogen			33.4 µM	Equol concentration regulating activity [1, 8]: 184.8%
